{"source": "patent US20220241369A1", "about": "“COMPOSITIONS AND METHODS OF MODULATING INFLAMMATION” (La Jolla Institute for Allergy and Immunology, priority 2018, published 2022)", "key": {"[1]": {"tested_on": "BEAS-2B human bronchial epithelial cells", "assay": "HRF secretion, western blot, BEAS-2B", "assay_type": "cell-based", "conditions": "cultured cells scraped and treated with adenosine and ATP", "source_text": "As lung epithelial cells are exposed to the environment, HRF secretion was studied using BEAS-2B human bronchial epithelial cells. A small amount of HRF was secreted constitutively, but house dust mite allergens induced the secretion of high-molecular-weight HRF species (HMW-HRFs). Various cytokines including epithelial derived cytokines as well as Th2 cytokines and proinflammatory cytokines further enhanced HDM-induced secretion of HMW-HRFs.\nCultured cells were scraped and treated with adenosine and ATP, which should be abundantly present in inflammatory or injured tissues. These conditions induced secretion of HRF monomer, dimer and HMW-HRFs like stimulation with HDM plus cytokines.\nCulture supernatants were analyzed by SDS-PAGE under nonreducing (−DTT) and reducing (+DTT) conditions, followed by western blotting for HRF probing. HDM-induced HRF secretion was enhanced not only by Th2 cytokines (IL-4, IL-5, and IL-13), but also by epithelial derived cytokines (IL-25, IL-33, and TSLP) and proinflammatory cytokines (IL-1beta, IL-6 and TNF). med, medium alone; US, unstimulated; HDM, house dust mite; CR, cockroach; RW, ragweed; Af, Aspergillus fumigatus. Arrowhead, HRF monomer."}, "IgE+ mMCP-1+ mast cells": {"tested_on": "IgE+ mMCP-1+ mast cells", "assay": "Localization of gavaged HRF inhibitors in jejunum by confocal microscopy", "assay_type": "in vivo, mouse", "conditions": "mice with allergic diarrhea, 1 h after i.g. gavage of 0.1 mg, anti-GST staining", "experimental": "HRF multimers in the jejunum of non-sensitized/OVA challenged (Cont, n=6) or OVA-sensitized/OVA-challenged (OVA, n=5) mice were quantified by a newly developed ELISA (FIG. 3A, FIG. 3C). HRF was also measured by ELISA (FIG. 3B). HRF dimer and monomer were quantified by western blotting in control (Cont) and food allergic mice treated without (OVA) or with GST (GST) or GST-N19 (N19) (n=5 for each group) (FIG. 3D). Allergic diarrhea was induced by 6 challenges. On the day of 7th challenge, the mice were gavaged with 0.1 mg of GST or GST-N19 (FIG. 3E). One hour later, mice were sacrificed without OVA challenge. Jejunum tissues were stained for GST, IgE, and mMCP-1 before confocal microscopy (n=5 for GST and n=6 for GST-N19). Arrows indicate cells positive for GST or GST-N19 as well as IgE and mMCP-1. […] Bars=50 μm.\nJejunum biopsy was fixed in 4% paraformaldehyde at 4° C., washed in 10-20% sucrose in phosphate buffered saline, and embedded in O.C.T. compound (Sakura Finetek, Japan). Cyrosections were made in 6 μm and blocked with 2% skim milk. Immunostaining was performed with anti-HRF (rabbit polyclonal FL-172), anti-GST (rabbit polyclonal Z-5) (Santa Cruz Biotechnology), anti-IgE (clone RME-1 from Biolegend and clone R35-72 from BD Biosciences), anti-mMCP1 (Catalog #AF5146, R&D Systems), anti-CD45 (clone 30-F11), anti-CD63 (clone NVG-2) (Biolegend), and anti-Siglec F (clone E50-2440, BD Biosciences) as primary antibodies, and anti-Rabbit Alexa Fluor 647 (Catalog #A21245), anti-Rat Alexa Fluor 568 (Catalog #A11077), and anti-Sheep Alexa Fluor 555 (Catalog #A11015) (Thermo Fisher Scientific) as secondary antibodies. Coverslips were mounted with Prolong Gold with DAPI (Thermo Fisher Scientific) and fluorescence was observed under Leica TCS SP2 confocal microscopy (Leica) and Nuance Multi spectral Imaging System (PerkinElmer).\nApplicant next tested whether HRF inhibitors target mucosal mast cells. To this end, mice with allergic diarrhea were i.g. gavaged with GST-N19 or GST, and their location was identified 1 h after their gavage."}, "[2]": {"tested_on": "c-Kit+ mucosal mast cells of the small intestine", "assay": "Ex vivo mast cell activation test (MCAT)", "assay_type": "cell-based, mouse", "conditions": "cells from allergic mice, HRF-2CA 300 μg/ml", "experimental": "FIGS. 2A-2C show mucosal mast cells can be activated ex vivo by antigen. Cells were released with EDTA from small intestines of non-sensitized/OVA challenged (Cont) or OVA-sensitized/OVA-challenged (OVA) mice, and mononuclear cells were selected. The cells were incubated for 15 min at 37° C. with OVA or anti-IgE antibody, and activation of Kit^+ mast cells was measured by flow cytometry (FIG. 2A, FIG. 2B). **, ***: p<0.01, p<0.001 by Student's t-test. (n=2; a representative of 2 independent experiments) (FIG. 2C) Mucosal cells derived from OVA-sensitized/OVA-challenged mice were stimulated with PBS (n=4), OVA (10 ng/ml, n=4) or HRF dimer (100 μg/ml, n=2) in the presence or absence of HRF-2CA (300 μg/ml).\nFIGS. 11A-11C show HRF dimer, but not monomer can activate mast cells. (FIG. 11A) Purified dimeric and monomeric HRF expressed in E. coli. Recombinant HRF-[…] was purified first by Histrap HP and then Sephacryl S-200 HR16/60. Two peaks were observed by Sephacryl size fractionation. The first (Fr1) and second (Fr3) peaks contained dimer and monomer, respectively, as shown by SDS-PAGE. Fr1 and Fr3 were used for mast cell stimulation. (FIG. 11B) Cells were released with 10 mM EDTA from small intestines of OVA-sensitized/OVA-challenged mice, and mononuclear cells were selected. The cells were incubated for 15 min at 37° C. with mHRF monomer or dimer (100 μg/ml), or PBS, and Kit^+ mast cell activation (LAMP-1^+) was measured by flow cytometry (n=3). (FIG. 11C) Control experiments indicate an excellent specificity of the assay for HRF multimers. HRF-2CA (2CA) was used as a monomer control (n=2 for each concentration). Note that total concentrations of the 1:9 mixture of dimer:monomer gave almost the same luminescence values as did ten-fold less concentrations of dimer.\nTwenty-four hours after the last OVA challenge, mice were sacrificed and small intestines (0.5-15 cm from stomach) were collected. The intestinal tissues were opened longitudinally and washed with PBS. Then, the tissues were incubated with 10 mM EDTA-PBS for 30 min at 37° C. After incubation, the tissues were transferred to 30 ml PBS in 50 ml tubes and vigorously shaken. After washed, the cells were resuspended in 40% Percoll solution and slowly loaded on the top of 75% Percoll solution. The cells were then centrifuged (2000 rpm, 20 min) and lymphocytes were collected. The cells were once centrifuged and resuspended in Tyrode's buffer. Abs (Biotin-anti-CD4 mAb (clone RM4-5), Biotin-anti-CD8 mAb (clone 53-6.7), Biotin-anti-B220 mAb (clone RA3-6B2), Biotin-anti-CD326 mAb (clone G8.8), PE-anti-CD117 (clone 2B8), AlexaFluor647-anti-LAMP-1 mAb (clone 1D4B)) (Biolegend) were added and cells were then stimulated with OVA, anti-IgE (clone RME-1, BioLegend) and recombinant dimeric murine HRF for 15 min at 37° C. After activation, cells were washed and incubated with FITC-streptavidin (Catalog #405202, Biolegend) for 30 min at 4° C. LAMP-1 expression was detected using FACS Calibur. Data were analyzed using FlowJo software."}, "[3]": {"tested_on": "OVA-induced food allergy (allergic diarrhea)", "assay": "IgE-mediated experimental food allergy, i.g. pretreatment with HRF inhibitor before each OVA challenge", "assay_type": "in vivo, mouse", "conditions": "i.g. pretreatment; serum ELISA", "experimental": "FIGS. 1A-1I show GST-N19 inhibits the development of diarrhea and intestinal mastocytosis in murine food allergy. Mice were i.p. sensitized with OVA ([…]) plus alum on days 0 and 14. From day 28, mice were i.g. challenged with OVA (50 mg) three times a week. Sensitized mice were either non-pretreated (−) or i.g. pretreated with 100 μg of GST or GST-N19 (N19). (FIG. 1A) Procedure scheme. (FIG. 1B) The development of diarrhea was monitored for 90 min after each OVA challenge. (n=5 for non-sensitized group, n=3 for inhibitor non-pretreated group, n=4 for GST group, n=6 for N19 group, data are representative of at least 3 independent experiments) Log-rank test: p=0.028 (GST vs. GST-N19), p=0.036 (control vs. GST-N19). […] (FIG. 1C-FIG. 1E) Total IgE, IgG1, HRF, and HRF-reactive IgE and IgG in sera were measured by ELISA. (FIG. 1F) Serum mMCP-1 was also measured by ELISA. (FIG. 1G) Sections of jejunum were stained with chloroacetate esterase to identify mast cells. Sections indicated by rectangles are enlarged in lower rows. Bar=100 μm in large pictures and 50 μm in insets. (FIG. 1H) Flow cytometry was performed to enumerate MMC9s (Lin^−c-Kit^+ST2^+IL-17RB^−Integrin β7^lo) in jejunum. (n=14 for non-sensitized group, n=15 for inhibitor non-pretreated group, n=9 for GST group, n=9 for GST-N19 group, pooled data of 3 independent experiments) (FIG. 1I) Cytokine mRNAs in jejunum were quantified by qRT-PCR. *, **: p<0.05, p<0.01 by ANOVA with Tukey's multiple comparison.\nMice were i.p. sensitized with OVA (50 μg/mouse) plus alum on days 0 and 14. From day 28, mice were i.g. challenged with OVA (25 or 50 mg) or PBS (control) three times a week. Before each challenge, mice were starved for 3 h, then i.g. pretreated with GST, GST-N19 (100 μg/mouse), synthetic N19 peptide, or HRF-2CA. The development of diarrhea was monitored for 90 min after OVA challenge. Diarrhea severity (30) was based on states of stool: solid (score 0), funicular (score 1), slurry (score 2), and watery (score 3).\nFor histologic analysis, jejunal tissue was fixed in 10% formalin. Mast cells in jejunal sections were detected by chloroacetate esterase staining. IgE, IgG, IgG1, IgG2a, mMCP-1, HRF, HRF-reactive IgE, and HRF-reactive IgG 24 h after the last OVA challenge were measured by ELISA (see Supplemental Information). Cytokine mRNAs in jejunum were quantified by qRT-PCR.\nTwenty-four hours after the last OVA challenge, mice were sacrificed and small intestines (0.5-15 cm from stomach) were collected. The intestinal tissues were opened longitudinally and washed with HBSS. The washed tissues were incubated with 5 mM EDTA-HBSS for 30 min at 4° C., transferred to 30 ml HBSS in 50 ml tubes, and vigorously shaken to remove intestinal epithelial cells. The tissues were then washed with 10 ml of 10% FCS RPMI medium. Tissues were cut into tiny pieces and incubated with 2.4 mg/ml Collagenase D and 0.2 mg/ml DNase for 30 min at 37° C. Then cells were washed, resuspended in 44% Percoll solution, and slowly loaded on the top of 67% Percoll solution. The cells were centrifuged (1800 rpm, 20 min) and lymphocyte fractions were collected and used for detection of MMC9s (Lin^−c-Kit^+ST2^+IL-17RB^−Integrin β7^lo).\nThe cells were first incubated with 2.4G2 for 15 min at 4° C. and further incubated with Abs (PE-anti-07 integrin mAb (clone FIB504), PerCP/Cy5.5-anti-CD4 mAb (clone RM4-5), PerCP/Cy5.5-anti-CD8 mAb (clone 53-6.7), PerCP/Cy5.5-anti-CD11b mAb (clone M1/70), PerCP/Cy5.5-anti-CD11c mAb (clone N418), PerCP/Cy5.5-anti-B220 mAb (RA3-6B2), PerCP/Cy5.5-anti-Ly-6G/Ly-6C mAb (clone RB6-8C5), PerCP/Cy5.5-anti-CD335 mAb (clone 29A1.4), AlexaFluor647-anti-IL-17RB (clone 9B10), APC/Cy7-anti-CD117 (clone 2B8), Biotin-anti-ST2 (clone DIH9)) (Biolegend) for 30 min at 4° C. After washed, the cells were incubated with SA-BV421 (Biolegend) for 30 min at 4° C. MMC9 population was identified using FACS Canto. Data were analyzed using FlowJo software."}}, "data": [{"molecule": "Nc1ncnc2c1ncn2[C@@H]1O[C@H](CO)[C@@H](O)[C@H]1O", "note": "[adenosine]", "values": [{"measurement": "secretion of HRF monomer, dimer and HMW-HRFs", "setting": "[1]", "value": "induced"}]}, {"molecule": "GST: GST protein used as control for GST-N19 [reference compound]", "values": [{"measurement": "IgE+ mMCP-1+ mast cells co-localized with the substance", "setting": "IgE+ mMCP-1+ mast cells", "value": 34, "unit": "%"}]}, {"molecule": "synthetic N19 peptide: synthesized N19 peptide (N-terminal 19 amino acids of HRF); HRF inhibitor (MIIYRDLISHDEMFSDIYK)", "values": [{"measurement": "HRF-induced activation of mucosal mast cells", "setting": "[2]; HRF dimer 100 μg/ml", "value": "significantly suppressed"}, {"measurement": "OVA-induced activation of mucosal mast cells", "setting": "[2]; OVA 10 ng/ml", "value": "significantly suppressed"}, {"measurement": "levels of total IgE, IgG1, IgG2a or HRF-reactive IgE and IgG", "setting": "[3]", "value": "failed to affect"}]}, {"molecule": "Nc1ncnc2c1ncn2[C@@H]1O[C@H](COP(=O)(O)OP(=O)(O)OP(=O)(O)O)[C@@H](O)[C@H]1O", "note": "[ATP]", "values": [{"measurement": "secretion of HRF monomer, dimer and HMW-HRFs", "setting": "[1]", "value": "induced"}]}]}
